Experimental data: patent US10806740B2, “Natural combination hormone replacement formulations and therapies” (TherapeuticsMD, Inc., priority 2012, dated 2020)

How the values were obtained:
Type in all cases: physicochemical
[1] = Estradiol solutions after addition of 7% water
Description: In addition to determining physical stability of the estradiol solutions over time, it is necessary to determine if the fill material will be stable during the encapsulation process. One way to test these preparations is with the addition of water to the fill mass. […].
All CAPMUL® PG8 containing formulations turned hazy on the addition of water.

[2] = Progesterone solubility in solvents
Description: . Thus, MIGLYOL® may be used in embodiments comprising a suspension of progesterone, though MIGLYOL®, standing alone, is not desirable for use in embodiments having fully solubilized progesterone and/or estradiol.

[3] = Particle size analysis with Beckman Device (laser diffraction); details: Fraunhofer optical model
Method: Particle size may be determined in any suitable manner. For example, a Beckman Coulter LS 13 320 Laser Diffraction Particle Size Analyzer (the “Beckman Device”) may be used to determine particle size. As described above, particle size may be represented by various metrics, for example, through an X50 particle size, and/or X90 particle size, or similar descriptions of particle size.
For the purposes of this Example, a particle size analysis is conducted by using the Beckman Device. A sample API comprising micronized progesterone in accordance with various embodiments is provided for analysis.
Approximately 0.01 g of a sample API in accordance with various embodiments was combined with Coulter 1B and 10 mL of deionized water. Sonication was performed for 15 seconds. The Beckman Device, equipped with a ULM, performed analysis for 90 seconds. The Beckman Device was configured to use the Fraunhofer optical model. […] The Beckman Device also yielded that the mean particle size is 4.975 μm, the median particle size is 4.279 μm, the mode particle size is 6.453 μm, and the standard deviation is 3.956 μm.
A formulation sample having approximately 200 mg of micronized progesterone and 2 mg of estradiol was dispersed with oil. The Beckman Device, equipped with a MLM, performed analysis for 60 seconds. The Beckman Device was configured to use the Fraunhofer optical model.

C[C@]12CC[C@@H]3c4ccc(O)cc4CC[C@H]3[C@@H]1CC[C@@H]2O [Estradiol, (17β)-estra-1,3,5(10)-triene-3,17-diol]
Results after addition of 7% water ([1]; estradiol 6 mg/g in CAPMUL MCM): without recrystallization
Results after addition of 7% water ([1]; estradiol 6 mg/g in MIGLYOL 812:CAPMUL PG8 (75:25)): Precipitated
Results after addition of 7% water ([1]; estradiol 6 mg/g in Polyethylene Glycol 400): without recrystallization
Results after addition of 7% water ([1]; estradiol 12 mg/g in CAPMUL MCM): Clear
Results after addition of 7% water ([1]; estradiol 12 mg/g in MIGLYOL 812:CAPMUL PG8 (50:50)): Hazy
Results after addition of 7% water ([1]; estradiol 12 mg/g in Polyethylene Glycol 400): clear
Results after addition of 7% water ([1]; estradiol 12 mg/g in TRANSCUTOL:MIGLYOL 812:CAPMUL PG8 (5:47:47)): Hazy
Results after addition of 7% water ([1]; estradiol 12 mg/g in TRANSCUTOL:MIGLYOL 812:CAPMUL PG8 (5:65:28)): Hazy

CC(=O)[C@H]1CC[C@H]2[C@@H]3CCC4=CC(=O)CC[C@]4(C)[C@H]3CC[C@]12C [Progesterone, pregn-4-ene-3,20-dione]
Progesterone Solubility ([2]; in CAPMUL MCM): 73.4 mg/g
Progesterone Solubility ([2]; in CAPMUL MCM:GELUCIRE 44/14 (6:3)): 57.4 mg/g
Progesterone Solubility ([2]; in CAPMUL MCM:GELUCIRE 44/14 (6:4)): 57.4 mg/g
Progesterone Solubility ([2]; in CAPMUL MCM:GELUCIRE 44/14 (7:3)): 70.5 mg/g
Progesterone Solubility ([2]; in CAPMUL MCM:GELUCIRE 44/14 (9:1)): 86.4 mg/g
Progesterone Solubility ([2]; in CAPMUL MCM:GELUCIRE 44/14 (9:1), listed as progesterone): approximately 86 mg/g
Progesterone Solubility ([2]; in CAPMUL MCM, listed as progesterone): ~73 mg/g
Progesterone Solubility ([2]; in CAPMUL PG8): 95 mg/g
Progesterone Solubility ([2]; in MIGLYOL 812): 27.8 mg/g
X25 particle size [3]: 1.590 μm
X50 particle size [3]: 4.279 μm
X75 particle size [3]: 7.442 μm
mean particle size [3]: 4.975 μm
median particle size [3]: 4.279 μm
mode particle size [3]: 6.453 μm
